Measurements: patent US9062041B2 (Bayer Intellectual Property GmbH, priority 2011, dated 2015)

How the values were obtained:
Type in all cases: cell-based
[1] = molecular target: T1, human PGD receptor (Homo sapiens, UniProt Q13258); test: cAMP antagonism test on the human prostaglandin D receptor (HTRF cAMP detection); conditions: selectivity towards hDP, IC50 measured by cAMP antagonism test
T1 sequence (Q13258 1-359): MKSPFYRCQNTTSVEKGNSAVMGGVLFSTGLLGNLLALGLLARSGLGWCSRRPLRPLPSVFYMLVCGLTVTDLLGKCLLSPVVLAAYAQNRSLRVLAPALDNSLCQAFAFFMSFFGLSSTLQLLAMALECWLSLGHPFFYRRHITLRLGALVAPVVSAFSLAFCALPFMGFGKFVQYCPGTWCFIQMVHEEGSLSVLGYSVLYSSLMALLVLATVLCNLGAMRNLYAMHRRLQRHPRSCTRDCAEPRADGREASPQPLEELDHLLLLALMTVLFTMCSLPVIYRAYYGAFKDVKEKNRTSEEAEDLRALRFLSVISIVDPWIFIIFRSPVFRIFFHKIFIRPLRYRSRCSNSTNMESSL
Outline: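 HTRF competition read-out (665/620 nm ratio ×10000), where higher FRET means less cAMP, i.e. antagonism. Compounds (0.8 nM–16.5 μM) were preincubated 20 min at RT with cells and cAMP-d2, PGD2 (3× solution, 6 nM) in IBMX-containing PBS added for 30 min at RT, then cells lysed 20 min.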

[2] = molecular target: EP4 subtype of the human PGE2 receptor (Homo sapiens, UniProt P35408); test: cAMP antagonism test on the human EP4 receptor (HTRF cAMP detection); conditions: selectivity towards hEP4, IC50 measured by cAMP antagonism test
EP4 subtype of the human PGE2 receptor, sequence (P35408 whole entry): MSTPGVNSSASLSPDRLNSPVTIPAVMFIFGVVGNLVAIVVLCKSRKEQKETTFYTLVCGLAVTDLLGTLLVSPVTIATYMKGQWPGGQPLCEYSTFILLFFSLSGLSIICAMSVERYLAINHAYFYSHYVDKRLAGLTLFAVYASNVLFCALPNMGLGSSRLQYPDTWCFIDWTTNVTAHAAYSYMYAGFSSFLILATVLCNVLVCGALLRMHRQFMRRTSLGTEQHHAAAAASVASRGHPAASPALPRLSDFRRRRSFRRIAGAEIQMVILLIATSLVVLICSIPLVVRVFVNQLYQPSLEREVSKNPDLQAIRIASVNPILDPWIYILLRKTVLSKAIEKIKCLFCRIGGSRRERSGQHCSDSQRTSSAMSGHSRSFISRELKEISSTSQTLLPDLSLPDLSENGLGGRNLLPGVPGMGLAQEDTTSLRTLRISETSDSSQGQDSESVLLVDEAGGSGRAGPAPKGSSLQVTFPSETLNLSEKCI
Outline: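 Competitive HTRF cAMP read-out (cAMP-d2 vs Eu-cryptate anti-cAMP antibody, 665/620 nm ratio) on lysed human EP4 cells. Compound (0.8 nM–16.5 μM) applied 20 min at RT before 60 min PGE2 challenge (3× solution 0.3 nM, IBMX present); 20 min lysis precedes reading.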

[3] = molecular target: EP2 subtype of the human PGE2 receptor (Homo sapiens, UniProt P43116); test: cAMP antagonism test on the human EP2 receptor (HTRF cAMP detection); conditions: hEP2 receptor, read-out: Antagonism hEP2 IC50
EP2 subtype of the human PGE2 receptor, sequence (P43116 whole entry): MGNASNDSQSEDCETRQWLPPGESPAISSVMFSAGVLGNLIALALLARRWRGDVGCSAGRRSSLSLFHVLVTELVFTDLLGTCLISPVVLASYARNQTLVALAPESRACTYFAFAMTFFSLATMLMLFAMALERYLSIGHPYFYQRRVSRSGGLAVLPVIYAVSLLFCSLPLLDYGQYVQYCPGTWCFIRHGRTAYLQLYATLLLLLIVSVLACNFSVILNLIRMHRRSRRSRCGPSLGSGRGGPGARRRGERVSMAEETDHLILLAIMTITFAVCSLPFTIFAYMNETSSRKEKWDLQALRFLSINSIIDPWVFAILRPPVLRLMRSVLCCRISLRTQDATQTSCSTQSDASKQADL
Outline: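 Read-out is a competitive HTRF for cAMP: lysate cAMP displaces cAMP-d2 from Eu cryptate-labelled antibody, and antagonism raises the 665/620 nm ratio. Compound (0.8 nM–16.5 μM) added to EP2 cells 20 min at RT before 60 min PGE2 challenge (3× stock 1.5 nM) with IBMX, followed by 20 min lysis.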

SMILES: Cc1c(C(=O)NCCOCC(F)(F)F)ccc2nn(CC3CCN(C(=O)c4ccc(-c5ccc(F)cc5)cc4)CC3)cc12 [Example 94, 2-({1-[(4′-fluoro-biphenyl-4-yl)-carbonyl]piperidin-4-yl}methyl)-4-methyl-N-[2-(2,2,2-trifluoroethoxy)-ethyl]-2H-indazol-5-carboxamide]
- Selectivity hEP2/hDP [1]: xxx (xxx > 100)
- Selectivity hEP2/hEP4 [2]: xxx (xxx > 100)
- IC50 [3]: 12.8 nM

SMILES: Cc1c(C(=O)NCCOC(C)(C)C)ccc2nn(CC3CCN(C(=O)c4ccc(Cl)cc4)CC3)cc12 [Example 111, N-(2-tert-butoxyethyl)-2-{[1-(4-chlorobenzoyl)piperidin-4-yl]methyl}-4-methyl-2H-indazol-5-carboxamide]
- Selectivity hEP2/hDP [1]: xxx (xxx > 100)
- Selectivity hEP2/hEP4 [2]: xxx (xxx > 100)
- IC50 [3]: 13.7 nM

SMILES: COCCNC(=O)c1ccc2nn(CC3CCN(C(=O)c4ccc(OC(C)C)cc4F)CC3)cc2c1C [Example 362, 2-{[1-(2-fluoro-4-isopropoxybenzoyl)piperidin-4-yl]methyl}-N-(2-methoxy-ethyl)-4-methyl-2H-indazol-5-carboxamide]
- Selectivity hEP2/hDP [1]: xxx (xxx > 100)
- Selectivity hEP2/hEP4 [2]: xxx (xxx > 100)
- IC50 [3]: 15.1 nM

SMILES: Cc1c(C(=O)NCC(F)(F)F)ccc2nn(CC3CCN(C(=O)c4nc5ccccc5s4)CC3)cc12 [Example 302, 2-{[1-(benzothiazol-2-ylcarbonyl)piperidin-4-yl]methyl}-4-methyl-N-(2,2,2-trifluoroethyl)-2H-indazol-5-carboxamide]
- Selectivity hEP2/hDP [1]: xxx (xxx > 100)
- Selectivity hEP2/hEP4 [2]: xxx (xxx > 100)
- IC50 [3]: 131 nM

SMILES: COCCNC(=O)c1ccc2nn(CC3CCN(C(=O)c4ccc(-c5cncc(F)c5)cc4)CC3)cc2c1C [Example 386, 2-({1-[4-(5-fluoropyridin-3-yl)benzoyl]piperidin-4-yl}methyl)-N-(2-methoxy-ethyl)-4-methyl-2H-indazol-5-carboxamide]
- Selectivity hEP2/hDP [1]: xxx (xxx > 100)
- Selectivity hEP2/hEP4 [2]: xxx (xxx > 100)
- IC50 [3]: 25.7 nM

SMILES: COCCNC(=O)c1ccc2nn(CC3CCN(C(=O)c4ccc(Oc5cccc(C(F)(F)F)c5)cc4)CC3)cc2c1C [Example 355, N-(2-methoxyethyl)-4-methyl-2-[(1-{4-[3-(trifluoromethyl)phenoxy]benzoyl}-piperidin-4-yl)methyl]-2H-indazol-5-carboxamide]
- Selectivity hEP2/hDP [1]: xxx (xxx > 100)
- Selectivity hEP2/hEP4 [2]: xxx (xxx > 100)
- IC50 [3]: 5.39 nM

SMILES: Cc1c(C(=O)NCC(F)(F)F)ccc2nn(CC3CCN(C(=O)c4ccc(-c5cccc(C(F)(F)F)n5)cc4)CC3)cc12 [Example 329, 4-methyl-N-(2,2,2-trifluoroethyl)-2-[(1-{4-[6-(trifluoromethyl)pyridin-2-yl]-benzoyl}piperidin-4-yl)methyl]-2H-indazol-5-carboxamide]
- Selectivity hEP2/hDP [1]: xx (xx: 10-100)
- Selectivity hEP2/hEP4 [2]: xx (xx: 10-100)
- IC50 [3]: 232 nM

SMILES: COCCNC(=O)c1ccc2nn(CC3CCN(C(=O)c4ccc(OC(C)(C)C)cc4)CC3)cc2c1C [Example 2, 2-({1-[4-tert-(butoxy)benzoyl]piperidin-4-yl}methyl)-N-(2-methoxyethyl)-4-methyl-2H-indazol-5-carboxamide]
- Selectivity hEP2/hDP [1]: xxx (xxx > 100)
- Selectivity hEP2/hEP4 [2]: xxx (xxx > 100)
- IC50 [3]: 21.7 nM

SMILES: Cc1c(C(=O)NCCSC(F)(F)F)ccc2nn(CC3CN(C(=O)c4ccc(Cl)cc4)C3)cc12 [Example 127, 2-{[1-(4-chlorobenzoyl)azetidin-3-yl]methyl}-4-methyl-N-{2-[(trifluoromethyl)sulphanyl]ethyl}-2H-indazol-5-carboxamide]
- Selectivity hEP2/hDP [1]: xxx (xxx > 100)
- Selectivity hEP2/hEP4 [2]: xxx (xxx > 100)
- IC50 [3]: 55.6 nM

SMILES: COc1cccc(-c2ccc(C(=O)N3CCC(Cn4cc5c(C)c(C(=O)NCC(F)(F)F)ccc5n4)CC3)cc2)n1 [Example 323, 2-({1-[4-(6-methoxypyridin-2-yl)benzoyl]piperidin-4-yl}methyl)-4-methyl-N-(2,2,2-trifluoroethyl)-2H-indazol-5-carboxamide]
- Selectivity hEP2/hDP [1]: xxx (xxx > 100)
- Selectivity hEP2/hEP4 [2]: xxx (xxx > 100)
- IC50 [3]: 128 nM

SMILES: Cc1c(C(=O)NCC2CCCCO2)ccc2nn(CC3CCN(C(=O)c4ccc(Cl)cc4)CC3)cc12 (racemic) [Example 239, (+/−)-2-{[1-(4-chlorobenzoyl)piperidin-4-yl]methyl}-4-methyl-N-(3,4,5,6-tetrahydro-2H-pyran-2-ylmethyl)-2H-indazol-5-carboxamide]
- Selectivity hEP2/hDP [1]: xxx (xxx > 100)
- Selectivity hEP2/hEP4 [2]: xxx (xxx > 100)
- IC50 [3]: 27 nM

SMILES: Cc1c(C(=O)NCC2COCCO2)ccc2nn(CC3CCN(C(=O)c4ccc(Cl)cc4)CC3)cc12 (racemic) [Example 413, (+/−)-2-{[1-(4-chlorobenzoyl)piperidin-4-yl]methyl}-N-(1,4-dioxan-2-ylmethyl)-4-methyl-2H-indazol-5-carboxamide]
- Selectivity hEP2/hDP [1]: xxx (xxx > 100)
- Selectivity hEP2/hEP4 [2]: xxx (xxx > 100)
- IC50 [3]: 37.8 nM

SMILES: Cc1c(C(=O)NCC(C)OC2CCC2)ccc2nn(CC3CN(C(=O)c4ccc(Cl)cc4)C3)cc12 (single isomer, unassigned) [Example 156, (R or S)-2-{[1-(4-chlorobenzoyl)azetidin-3-yl]methyl}-N-[2-(cyclobutyloxy)-propyl]-4-methyl-2H-indazol-5-carboxamide]
- Selectivity hEP2/hDP [1]: xx (xx: 10-100)
- Selectivity hEP2/hEP4 [2]: xx (xx: 10-100)
- IC50 [3]: 184 nM

SMILES: Cc1c(C(=O)NCC(F)(F)F)ccc2nn(CC3CN(C(=O)c4ccc(Cl)cc4)C3)cc12 [Example 129, 2-{[1-(4-chlorobenzoyl)azetidin-3-yl]methyl}-4-methyl-N-(2,2,2-trifluoroethyl)-2H-indazol-5-carboxamide]
- Selectivity hEP2/hDP [1]: xx (xx: 10-100)
- Selectivity hEP2/hEP4 [2]: xx (xx: 10-100)
- IC50 [3]: 309 nM

SMILES: Cc1c(C(=O)NCC(F)(F)F)ccc2nn(CC3CCN(C(=O)c4ccc(-c5ccc(Cl)cn5)cc4)CC3)cc12 [Example 317, 2-({1-[4-(5-chloropyridin-2-yl)benzoyl]piperidin-4-yl}methyl)-4-methyl-N-(2,2,2-trifluoroethyl)-2H-indazol-5-carboxamide]
- Selectivity hEP2/hDP [1]: xx (xx: 10-100)
- Selectivity hEP2/hEP4 [2]: xx (xx: 10-100)
- IC50 [3]: 181 nM

SMILES: Cc1c(C(=O)NCCOCC(F)(F)F)ccc2nn(CC3CCN(C(=O)c4ccc(C5CC5)cc4)CC3)cc12 [Example 95, 2-{[1-(4-cyclo-propylbenzoyl)-piperidin-4-yl]-methyl}-4-methyl-N-[2-(2,2,2-tri-fluoroethoxy)ethyl]-2H-indazol-5-carboxamide]
- Selectivity hEP2/hDP [1]: xxx (xxx > 100)
- Selectivity hEP2/hEP4 [2]: xxx (xxx > 100)
- IC50 [3]: 6.18 nM

SMILES: COCCNC(=O)c1ccc2nn(CC3CCN(C(=O)c4ccc(-c5ccccc5C)cc4)CC3)cc2c1C [Example 50, N-(2-methoxyethyl)-4-methyl-2-({1-[(2′-methylbiphenyl-4-yl)carbonyl]piperidin-4-yl}methyl)-2H-indazol-5-carboxamide]
- Selectivity hEP2/hDP [1]: xxx (xxx > 100)
- Selectivity hEP2/hEP4 [2]: xxx (xxx > 100)
- IC50 [3]: 3.18 nM

SMILES: Cc1c(C(=O)NCC2COCCO2)ccc2nn(CC3CN(C(=O)c4ccc(Oc5ccc(F)cc5)cc4)C3)cc12 (racemic) [Example 148, (+/−)-N-(1,4-dioxan-2-ylmethyl)-2-({1-[4-(4-fluorophenoxy)benzoyl]azetidin-3-yl}methyl)-4-methyl-2H-indazol-5-carboxamide]
- Selectivity hEP2/hDP [1]: xxx (xxx > 100)
- Selectivity hEP2/hEP4 [2]: xxx (xxx > 100)
- IC50 [3]: 27.4 nM

SMILES: COCCNC(=O)c1cc2cn(CC3CCN(C(=O)c4ccc(S(F)(F)(F)(F)F)cc4)CC3)nc2cc1C [Example 210, N-(2-methoxyethyl)-6-methyl-2-({1-[4-(pentafluoro-λ^6-sulphanyl)benzoyl]-piperidin-4-yl}methyl)-2H-indazol-5-carboxamide]
- Selectivity hEP2/hDP [1]: xxx (xxx > 100)
- Selectivity hEP2/hEP4 [2]: xxx (xxx > 100)
- IC50 [3]: 19.5 nM
